The values that follow come from US11427548B2 (Arvinas Operations, Inc., priority 2015, dated 2022).

One test addresses T1, Androgen Receptor (Homo sapiens, UniProt P10275).
T1 construct: endogenous in cells; host or cells: VCaP cells
T1 sequence (P10275 1-920): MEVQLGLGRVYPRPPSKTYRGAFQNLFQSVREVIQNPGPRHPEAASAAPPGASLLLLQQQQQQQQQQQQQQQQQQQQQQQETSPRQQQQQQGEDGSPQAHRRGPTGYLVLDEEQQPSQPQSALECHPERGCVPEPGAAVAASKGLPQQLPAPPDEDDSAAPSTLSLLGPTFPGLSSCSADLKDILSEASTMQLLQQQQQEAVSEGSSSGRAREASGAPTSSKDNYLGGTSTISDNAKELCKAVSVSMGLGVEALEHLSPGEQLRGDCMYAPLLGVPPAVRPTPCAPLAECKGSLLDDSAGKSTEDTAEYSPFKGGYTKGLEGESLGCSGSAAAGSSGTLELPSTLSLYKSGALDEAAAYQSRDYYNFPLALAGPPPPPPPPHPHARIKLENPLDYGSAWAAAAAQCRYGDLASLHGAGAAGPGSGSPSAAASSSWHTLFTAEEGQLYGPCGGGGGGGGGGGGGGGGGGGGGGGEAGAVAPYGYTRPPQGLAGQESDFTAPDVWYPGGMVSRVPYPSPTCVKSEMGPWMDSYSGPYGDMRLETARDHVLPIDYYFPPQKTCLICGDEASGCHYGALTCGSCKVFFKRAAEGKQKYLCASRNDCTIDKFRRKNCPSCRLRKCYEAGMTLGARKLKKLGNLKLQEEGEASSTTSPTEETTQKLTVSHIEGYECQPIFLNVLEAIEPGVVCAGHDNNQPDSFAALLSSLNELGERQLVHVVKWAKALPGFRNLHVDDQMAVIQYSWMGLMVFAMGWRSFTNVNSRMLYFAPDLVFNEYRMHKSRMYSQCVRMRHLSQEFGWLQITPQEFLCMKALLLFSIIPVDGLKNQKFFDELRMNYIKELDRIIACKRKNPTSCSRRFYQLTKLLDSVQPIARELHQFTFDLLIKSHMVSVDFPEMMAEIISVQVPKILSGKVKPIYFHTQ
Nature of the test: Androgen Receptor ELISA assay (PathScan AR ELISA) in VCaP cells: AR degradation, Dmax and DC50. It is filed as cell-based. A digest of the protocol: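 After 24 h exposure of VCaP cells (charcoal-stripped serum, 0.1 nM R1881 agonist, 0.1% DMSO) to seven half-log compound concentrations, residual AR in lysates was measured by PathScan ELISA (TMB absorbance, 450 nm). Cells were plated at 30,000/well and grown at least 3 days beforehand.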
For orientation: ELISA stands for enzyme-linked immunosorbent assay.

Another test relates to VCaP cells. Nature of the test: VCaP cell proliferation assay (Cell Titer Glo), GI50. It is filed as cell-based. Particulars: Homo sapiens; VCaP cells, 0.1 nM R1881; Table 37; read-out: GI50, Inhibition of VCaP Proliferation. How it is done:
2. VCaP Cell Proliferation Assay.
VCaP cells are plated 7,500/well 200 μL/well in VCaP assay medium [Phenol red free RPMI (Gibco Cat #11835-030); 5% Charcoal Stripped (Dextran treated) FBS (Omega Scientific, Cat #FB-04); Pen/Strep Life Technologies (Gibco Cat #: 10378-016); 0.1 nM R1881 (Sigma, Cat #R0908) is added upon the start of the assay, not during initial plating of the cells).
The assay was performed as follows: the cells are grown for a minimum of 3 days to deplete androgens; dosing of PROTACs and R1881 is performed as for AR ELISA; the baseline reading of Cell Titer Glo can be performed on day of dosing.
VCaP cells with 0.1 nM R1881 will double once in 4 days. Gently draw off 110 μL of media so as not to disturb the adherent cells; add 110 μL of CTG; incubate with slow shaking for 20 minutes; and read luminescence on a plate reader.

Setting [1] is: VCaP, highest percentage of Androgen Receptor degradation observed, VCaP cells (Table 32); read-out: VCaP Dmax (%).
[2] abbreviates: concentration that caused 50% Androgen Receptor degradation, VCaP cells (Table 32); read-out: VCaP DC50.
[3] abbreviates: VCaP cells; concentration that caused 50% Androgen Receptor degradation; read-out: VCaP DC50.
Setting [4] is: VCaP, VCaP cells; highest percentage of Androgen Receptor degradation; read-out: VCaP Dmax (%).

By Dmax is commonly meant the largest share of the target that was removed. Usually DC50 stands for the concentration giving 50% degradation.

Read-outs that look alike come from different tables or passages of the source. Bounds are passed on as bounds.

On to `Cc1ncsc1-c1ccc(CNC(=O)[C@@H]2C[C@@H](O)CN2C(=O)[C@@H](NC(=O)COC[C@@H](O)CCOc2ccc(-c3ccc(N4C(=S)N(c5ccc(C#N)c(C(F)(F)F)c5)C(=O)C4(C)C)cc3)cc2)C(C)(C)C)cc1` [Example 131, (2S,4R)-1-[(2S)-2-{2-[(2S)-4-[4-(4-{3-[4-cyano-3-(trifluoromethyl)phenyl]-5,5-dimethyl-4-oxo-2-sulfanylideneimidazolidin-1-yl}phenyl)phenoxy]-2-hydroxybutoxy]acetamido}-3,3-dimethylbutanoyl]-4-hydroxy-N-{[4-(4-methyl-1,3-thiazol-5-yl)phenyl]methyl}pyrrolidine-2-carboxamide], for which the Dmax on Androgen Receptor (VCaP, read-out: VCaP Dmax (%)) is above 71%. The GI50 in the test on VCaP cells was in the range of 51 to 250 nM.
With `Cc1cc(-c2ccc(N3C(=S)N(c4ccc(C#N)c(C(F)(F)F)c4)C(=O)C3(C)C)cc2)ccc1OCCCCOCC(=O)N[C@H](C(=O)N1C[C@H](O)C[C@H]1C(=O)NCc1ccc(-c2scnc2C)cc1)C(C)(C)C` [Example 134, (2S,4R)-1-[(2S)-2-(2-{4-[4-(4-{3-[4-cyano-3-(trifluoromethyl)phenyl]-5,5-dimethyl-4-oxo-2-sulfanylideneimidazolidin-1-yl}phenyl)-2-methylphenoxy]butoxy}acetamido)-3,3-dimethylbutanoyl]-4-hydroxy-N-{[4-(4-methyl-1,3-thiazol-5-yl)phenyl]methyl}pyrrolidine-2-carboxamide], the Dmax at Androgen Receptor (VCaP, read-out: VCaP Dmax (%)) was above 71%. Besides, at Androgen Receptor (read-out: VCaP DC50; concentration that caused 50% Androgen Receptor degradation, VCaP cells (Table 32)), the half-maximal degradation concentration (DC50) was below 50 nM. The GI50 in the test on VCaP cells lay in the range of 51 to 250 nM.
`Cc1ncoc1-c1ccc([C@H](C)NC(=O)[C@@H]2C[C@@H](O)CN2C(=O)[C@@H](NC(=O)COCCCCCOc2ccc(C(=O)N[C@H]3C(C)(C)[C@H](Oc4ccc(C#N)c(Cl)c4)C3(C)C)cc2)C(C)(C)C)cc1` [Example 156, (2S,4R)-1-[(2S)-3,3-dimethyl-2-(2-{[5-(4-{[trans--3-(3-chloro-4-cyanophenoxy)-2,2,4,4-tetramethylcyclobutyl]carbamoyl]phen-oxy)pentyl]oxy}acetamido)butanoyl]-4-hydroxy-N-[(1S)-1-[4-(4-methyl-1,3-oxazol-5-yl)phenyl]ethyl]pyrrolidine-2-carboxamide]: the Dmax at Androgen Receptor (setting [1]) was above 71%. Moreover, the half-maximal degradation concentration (DC50) at Androgen Receptor (setting [2]) was below 50 nM. The GI50 in the test on VCaP cells is at most 50 nM.
Take `Cc1ncsc1-c1ccc([C@H](C)NC(=O)[C@@H]2C[C@@H](O)CN2C(=O)[C@@H](NC(=O)COCCCCCOc2ccc(C(=O)N[C@H]3C(C)(C)[C@H](Oc4ccc(C#N)c(Cl)c4)C3(C)C)cc2)C(C)(C)C)cc1` [Example 157, (2S,4R)-1-[(2S)-3,3-dimethyl-2-(2-{[5-(4-{[trans-3-(3-chloro-4-cyanophenoxy)-2,2,4,4-tetramethylcyclobutyl]carbamoyl}phen-oxy)pentyl]oxy}acetamido)butanoyl]-4-hydroxy-N-[(1S)-1-[4-(4-methyl-1,3-thiazol-5-yl)phenyl]ethyl]pyrrolidine-2-carboxamide]: on Androgen Receptor (setting [1]), the maximal degradation (Dmax) is above 71%. Moreover, the GI50 with VCaP cells was at most 50 nM.
With `CC(C)(C)[C@H](NC(=O)COCCCCOc1ccc(C(=O)N[C@H]2C(C)(C)[C@H](Oc3ccc(C#N)c(Cl)c3)C2(C)C)cc1)C(=O)N1C[C@H](O)C[C@H]1C(=O)NCc1ccc(Cl)cc1` [Example 169, (2S,4R)-N-[(4-chlorophenyl)methyl]-1-[(2S)-3,3-dimethyl-2-{2-[4-(4-{[trans-3-(3-chloro-4-cyanophenoxy)-2,2,4,4-tetramethylcyclobutyl]carbamoyl}phenoxy)butoxy]acetamido}butanoyl]-4-hydroxypyrrolidine-2-carboxamide], the Dmax on Androgen Receptor (setting [1]) lay in the range of 51 to 70%. Moreover, the DC50 at Androgen Receptor (setting [2]) is below 50 nM. Further, the GI50 with VCaP cells lay within 51 to 250 nM.
Turning to `CC(C)(C)[C@H](NC(=O)COCCCCOc1ccc(C(=O)N[C@H]2C(C)(C)[C@H](Oc3ccc(C#N)c(Cl)c3)C2(C)C)cc1)C(=O)N1C[C@H](O)C[C@H]1C(=O)NCc1ccc(C#N)cc1` [Example 170, (2S,4R)-N-[(4-cyanophenyl)methyl]-1-[(2S)-3,3-dimethyl-2-{2-[4-(4-{[trans-3-(3-chloro-4-cyanophenoxy)-2,2,4,4-tetramethylcyclobutyl]carbamoyl}phenoxy)butoxy]acetamido}butanoyl]-4-hydroxypyrrolidine-2-carboxamide], the Dmax on Androgen Receptor (setting [1]) was above 71%. The 50% degradation concentration (DC50) on Androgen Receptor (setting [2]) is below 50 nM. In addition, the GI50 in the test with VCaP cells is at most 50 nM.
Turning to `Cc1ncsc1-c1ccc(CNC(=O)[C@@H]2C[C@@H](O)CN2C(=O)[C@@H](NC(=O)COCCCCCNc2ccc(C(=O)N[C@H]3C(C)(C)[C@H](Oc4ccc(C#N)c(Cl)c4)C3(C)C)cc2)C(C)(C)C)cc1` [Example 172, (2S,4R)-1-[(2S)-3,3-dimethyl-2-[2-({5-[(4-{[trans-3-(3-chloro-4-cyanophenoxy)-2,2,4,4-tetramethylcyclobutyl]carbamoyl}phenyl)amino]pentyl}oxy)acetamido]butanoyl]-4-hydroxy-N-{[4-(4-methyl-1,3-thiazol-5-yl)phenyl]methyl}pyrrolidine-2-carboxamide], the Dmax at Androgen Receptor (setting [1]) was above 71%. In the test on VCaP cells, the GI50 was at most 50 nM.
In the same order, the values of `Cc1ncsc1-c1ccc(CNC(=O)[C@@H]2C[C@@H](O)CN2C(=O)[C@@H](NC(=O)COCc2ccc(Oc3ccc(C(=O)N[C@H]4C(C)(C)[C@H](Oc5ccc(C#N)c(Cl)c5)C4(C)C)cc3)cc2)C(C)(C)C)cc1` [Example 183, (2S,4R)-1-[(2S)-3,3-dimethyl-2-(2-{[4-(4-{[trans-3-(3-chloro-4-cyanophenoxy)-2,2,4,4-tetramethylcyclobutyl]carbamoyl}phenoxy)phenyl]methoxy}acetamido)butanoyl]-4-hydroxy-N-{[4-(4-methyl-1,3-thiazol-5-yl)phenyl]methyl}pyrrolidine-2-carboxamide] are above 71% and at most 50 nM.
As to `Cc1ncsc1-c1ccc([C@H](C)NC(=O)[C@@H]2C[C@@H](O)CN2C(=O)[C@@H](NC(=O)COCCCCOc2ccc(-c3ccc(N4C(=S)N(c5cnc(C#N)c(C(F)(F)F)c5)C(=O)C4(C)C)cc3)cc2)C(C)(C)C)cc1` [Example 194, (2S,4R)-1-[(2S)-2-(2-{4-[4-(4-{3-[6-cyano-5-(trifluoromethyl)pyridin-3-yl]-5,5-dimethyl-4-oxo-2-sulfanylideneimidazolidin-1-yl}phenyl)phenoxy]butoxy}acetamido)-3,3-dimethylbutanoyl]-4-hydroxy-N-[(1S)-1-[4-(4-methyl-1,3-thiazol-5-yl)phenyl]ethyl]pyrrolidine-2-carboxamide], the half-maximal degradation concentration (DC50) at Androgen Receptor (setting [3]) was below 50 nM. Further, the Dmax at Androgen Receptor (setting [4]) was above 71%. Moreover, in the test on VCaP cells, the GI50 was in the range of 51 to 250 nM.
In the case of `Cc1ncoc1-c1ccc([C@H](C)NC(=O)[C@@H]2C[C@@H](O)CN2C(=O)[C@@H](NC(=O)COCCCCOc2ccc(-c3ccc(N4C(=S)N(c5cnc(C#N)c(C(F)(F)F)c5)C(=O)C4(C)C)cc3)cc2)C(C)(C)C)cc1` [Example 195, (2S,4R)-1-[(2S)-2-(2-{4-[4-(4-{3-[6-cyano-5-(trifluoromethyl)pyridin-3-yl]-5,5-dimethyl-4-oxo-2-sulfanylideneimidazolidin-1-yl}phenyl)phenoxy]butoxy}acetamido)-3,3-dimethylbutanoyl]-4-hydroxy-N-[(1S)-1-[4-(4-methyl-1,3-oxazol-5-yl)phenyl]ethyl]pyrrolidine-2-carboxamide], at Androgen Receptor (setting [3]), the DC50 was below 50 nM. For the same compound, the Dmax at Androgen Receptor (setting [4]) was above 71%. Also, in the test with VCaP cells, the GI50 is 51 to 250 nM.
